For 18 compounds, IC50 results are on record in patent US20230365541A1, “INHIBITOR OF ENHANCER OF ZESTE HOMOLOGUE 2, AND USE THEREOF” (HAISCO PHARMACEUTICALS PTE. LTD., priority 2020, published 2023).

This test concerns the target EZH2 (Homo sapiens (Human), UniProt Q15910). The experiment in a line: Test method for EZH2 enzyme activity. Particulars: H3K27(21-44) and [3H]-SAM. In kind it is biochemical. As for the experimental part: The compounds were dissolved in DMSO, formulated into 10 mM solutions and serially diluted with DMSO to obtain 100-fold the final concentration. 200 nL of the solutions of the compounds was transferred to a 384-well plate (Perkin Elmer, Cat. No. 6007299) by using Echo550. EZH2 (BPS, Cat. No. 51004) was diluted with 1×assay buffer (50 mM Tris-HCl 9.0, 0.01% Tween-20, 1 mM DTT) to 2-fold the final concentration (EZH2: 3 nM). A mixed solution of H3K27(21-44) and [3H]-SAM (PerkinElmer, Lot. No. 2146246) (H3K27(21-44): 200 nM, [3H]-SAM: 100 nM) was formulated. The EZH2 diluted solution was taken and added to the 384-well plate at 10 μL/well (10 μL of 1×assay buffer was added in the control group). The plate was sealed and then incubated at room temperature for 15 minutes. 10 μL of the mixed solution of H3K27 (21-44) and [3H]-SAM was added to each well. The plate was sealed and then incubated at room temperature for 60 minutes. 50 μM of SAM (Sigma, Cat. No. A7007) was formulated at low temperature and added to the 384-well plate at 10 μL/well. The sample was taken at 25 μL/well, transferred to a flashplate and incubated at room temperature for at least 1 hour. The flashplate was washed 3 times with a plate washing liquid (dH2O+0.1% Tween-20) and read by using Microbeta. The inhibition rate was calculated in Excel according to: inhibition rate (%)=(maximum valuepositive control−detection signal value)/(maximum valuepositive control−minimum valuenegative control)*100, and IC50 values were fitted by using XL-Fit.

Sequence of EZH2 (Q15910 other isoform, or with tags, fused parts or gaps isoform Q15910-2): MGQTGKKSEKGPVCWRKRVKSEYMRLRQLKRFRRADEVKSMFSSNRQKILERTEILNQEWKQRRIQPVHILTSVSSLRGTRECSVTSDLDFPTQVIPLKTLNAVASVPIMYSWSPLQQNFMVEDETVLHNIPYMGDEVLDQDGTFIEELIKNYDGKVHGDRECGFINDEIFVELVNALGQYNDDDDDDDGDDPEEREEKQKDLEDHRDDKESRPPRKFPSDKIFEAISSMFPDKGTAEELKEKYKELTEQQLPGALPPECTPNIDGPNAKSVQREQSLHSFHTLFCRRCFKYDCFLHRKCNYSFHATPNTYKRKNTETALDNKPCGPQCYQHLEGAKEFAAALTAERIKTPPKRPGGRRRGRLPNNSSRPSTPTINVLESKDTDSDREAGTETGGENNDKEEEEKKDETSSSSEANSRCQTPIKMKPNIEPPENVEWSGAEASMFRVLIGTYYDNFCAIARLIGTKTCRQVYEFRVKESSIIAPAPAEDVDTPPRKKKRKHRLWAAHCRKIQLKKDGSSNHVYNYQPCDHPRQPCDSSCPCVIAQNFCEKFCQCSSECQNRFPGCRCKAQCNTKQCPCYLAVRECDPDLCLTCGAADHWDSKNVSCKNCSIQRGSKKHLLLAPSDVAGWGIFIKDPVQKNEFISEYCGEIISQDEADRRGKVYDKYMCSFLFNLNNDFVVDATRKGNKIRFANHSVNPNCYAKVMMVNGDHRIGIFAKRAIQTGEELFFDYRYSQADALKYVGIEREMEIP
Sequence of EZH2 (O75530 2-441 partner): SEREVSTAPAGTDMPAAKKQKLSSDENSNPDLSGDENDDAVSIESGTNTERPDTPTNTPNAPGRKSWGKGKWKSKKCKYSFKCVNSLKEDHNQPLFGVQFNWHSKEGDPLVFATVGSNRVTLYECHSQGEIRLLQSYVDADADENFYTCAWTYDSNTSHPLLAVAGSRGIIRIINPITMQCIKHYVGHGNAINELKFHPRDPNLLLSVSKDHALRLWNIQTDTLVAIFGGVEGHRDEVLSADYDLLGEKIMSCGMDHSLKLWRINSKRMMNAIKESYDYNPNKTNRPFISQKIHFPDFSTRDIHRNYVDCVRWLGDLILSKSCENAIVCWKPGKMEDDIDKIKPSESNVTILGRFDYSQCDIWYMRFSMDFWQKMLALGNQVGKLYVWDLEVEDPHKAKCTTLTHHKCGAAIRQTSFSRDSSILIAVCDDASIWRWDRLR
Sequence of EZH2 (Q15022 2-739 partner): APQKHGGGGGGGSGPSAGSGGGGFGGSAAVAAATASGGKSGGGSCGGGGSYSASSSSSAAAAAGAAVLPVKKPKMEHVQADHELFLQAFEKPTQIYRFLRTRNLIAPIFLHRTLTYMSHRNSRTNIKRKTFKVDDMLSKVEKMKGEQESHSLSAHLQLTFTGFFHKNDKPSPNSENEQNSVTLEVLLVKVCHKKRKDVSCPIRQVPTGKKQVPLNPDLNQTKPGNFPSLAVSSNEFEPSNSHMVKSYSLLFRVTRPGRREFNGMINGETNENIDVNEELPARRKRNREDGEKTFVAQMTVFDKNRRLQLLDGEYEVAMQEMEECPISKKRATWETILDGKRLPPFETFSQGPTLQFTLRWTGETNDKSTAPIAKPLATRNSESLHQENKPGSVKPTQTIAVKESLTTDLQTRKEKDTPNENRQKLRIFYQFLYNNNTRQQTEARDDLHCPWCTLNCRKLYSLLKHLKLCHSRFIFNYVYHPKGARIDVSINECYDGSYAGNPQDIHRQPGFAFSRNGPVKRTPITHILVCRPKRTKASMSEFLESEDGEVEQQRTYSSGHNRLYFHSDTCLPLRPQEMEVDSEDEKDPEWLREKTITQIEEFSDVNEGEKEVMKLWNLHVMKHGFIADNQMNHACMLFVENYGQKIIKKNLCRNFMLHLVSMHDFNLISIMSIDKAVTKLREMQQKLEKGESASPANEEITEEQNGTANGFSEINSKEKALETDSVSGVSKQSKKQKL
Sequence of EZH2 (Q09028 2-425 partner): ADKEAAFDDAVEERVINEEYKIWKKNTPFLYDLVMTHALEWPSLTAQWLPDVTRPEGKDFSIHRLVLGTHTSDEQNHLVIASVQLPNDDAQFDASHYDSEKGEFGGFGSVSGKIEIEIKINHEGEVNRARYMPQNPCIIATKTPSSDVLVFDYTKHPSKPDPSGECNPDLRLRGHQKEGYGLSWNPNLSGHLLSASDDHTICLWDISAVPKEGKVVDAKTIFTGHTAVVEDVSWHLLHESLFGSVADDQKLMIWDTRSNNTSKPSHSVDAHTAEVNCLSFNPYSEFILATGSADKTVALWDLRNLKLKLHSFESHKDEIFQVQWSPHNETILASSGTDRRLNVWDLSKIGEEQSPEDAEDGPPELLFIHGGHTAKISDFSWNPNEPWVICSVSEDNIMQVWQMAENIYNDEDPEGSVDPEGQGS
Sequence of EZH2 (Q6ZN18 whole entry partner): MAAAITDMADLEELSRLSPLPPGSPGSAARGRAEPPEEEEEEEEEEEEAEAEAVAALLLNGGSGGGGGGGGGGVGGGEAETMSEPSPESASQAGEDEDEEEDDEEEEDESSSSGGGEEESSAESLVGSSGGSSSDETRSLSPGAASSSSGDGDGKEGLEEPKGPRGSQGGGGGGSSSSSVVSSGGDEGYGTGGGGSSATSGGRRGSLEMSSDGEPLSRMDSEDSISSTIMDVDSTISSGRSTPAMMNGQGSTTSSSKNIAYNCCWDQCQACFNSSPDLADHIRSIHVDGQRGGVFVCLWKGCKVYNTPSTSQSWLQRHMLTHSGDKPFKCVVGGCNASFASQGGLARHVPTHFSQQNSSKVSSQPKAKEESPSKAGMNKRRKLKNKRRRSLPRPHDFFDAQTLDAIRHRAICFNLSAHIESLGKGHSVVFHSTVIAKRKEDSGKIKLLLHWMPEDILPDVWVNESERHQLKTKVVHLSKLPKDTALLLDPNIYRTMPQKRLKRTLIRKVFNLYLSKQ

By IC50 is commonly meant the midpoint of a concentration-inhibition curve. The low end stands for inhibition by little substance, the high end for a need for much substance. Take `CSc1cc(C)[nH]c(=O)c1CNC(=O)c1cc(Cl)c2c(c1C)OC(C)([C@H]1CC[C@@H](N3CC4CN(C)CC4C3)CC1)O2` (single isomer, unassigned) [Compound 42, isomer 1, 7-chloro-2,4-dimethyl-N-((6-methyl-4-(methylthio)-2-oxo-1,2-dihydropyridin-3-yl)methyl)-2-(4-(5-methylhexahydropyrrolo[3,4-c]pyrrol-2(1H)-yl)cyclohexyl)benzo[d][1,3]dioxole-5-carboxamide]: half-maximal inhibition (IC50) required 340 pM.
With `CSc1cc(C)[nH]c(=O)c1CNC(=O)c1cc(Cl)c2c(c1C)OC(C)([C@H]1CC[C@@H](N3CC4CN(C)CC4C3)CC1)O2` (single isomer, unassigned) [Compound 42, isomer 2, 7-chloro-2,4-dimethyl-N-((6-methyl-4-(methylthio)-2-oxo-1,2-dihydropyridin-3-yl)methyl)-2-(4-(5-methylhexahydropyrrolo[3,4-c]pyrrol-2(1H)-yl)cyclohexyl)benzo[d][1,3]dioxole-5-carboxamide] the figure was 230 pM.
`CSc1cc(C)[nH]c(=O)c1CNC(=O)c1cc(Cl)c2c(c1C)OC(C)([C@H]1CC[C@@H](N3CC(N4CCCC4)C3)CC1)O2` (single isomer, unassigned) [Compound 43, isomer 2, 7-chloro-2,4-dimethyl-N-((6-methyl-4-(methylthio)-2-oxo-1,2-dihydropyridin-3-yl)methyl)-2-(4-(3-(pyrrolidin-1-yl)azetidin-1-yl)cyclohexyl)benzo[d][1,3]dioxole-5-carboxamide] displayed a 50% inhibitory concentration (IC50) of 420 pM.
`CSc1cc(C)[nH]c(=O)c1CNC(=O)c1cc(Cl)c2c(c1C)OC(C)(C1CCC(N[C@H]3C[C@H](O)C3)CC1)O2` (single isomer, unassigned) [Compound 45, isomer 1, 7-chloro-2-(4-((trans-3-hydroxycyclobutyl)amino)cyclohexyl)-2,4-dimethyl-N-((6-methyl-4-(methylthio)-2-oxo-1,2-dihydropyridin-3-yl)methyl)benzo[d][1,3]dioxole-5-carboxamide] yielded an IC50 of 280 pM.
Under `CSc1cc(C)[nH]c(=O)c1CNC(=O)c1cc(Cl)c2c(c1C)OC(C)(C1CCC(N[C@H]3C[C@H](O)C3)CC1)O2` (single isomer, unassigned) [Compound 45, isomer 2, 7-chloro-2-(4-((trans-3-hydroxycyclobutyl)amino)cyclohexyl)-2,4-dimethyl-N-((6-methyl-4-(methylthio)-2-oxo-1,2-dihydropyridin-3-yl)methyl)benzo[d][1,3]dioxole-5-carboxamide] stands 350 pM; under `CSc1cc(C)[nH]c(=O)c1CNC(=O)c1cc(Cl)c2c(c1C)OC(C)([C@H]1CC[C@@H](N3CC[Si](C)(C)CC3)CC1)O2` (single isomer, unassigned) [Compound 49, isomer 1, 7-chloro-2-(4-(4,4-dimethyl-1,4-azasilinan-1-yl)cyclohexyl)-2,4-dimethyl-N-((6-methyl-4-(methylthio)-2-oxo-1,2-dihydropyridin-3-yl)methyl)benzo[d][1,3]dioxole-5-carboxamide], 510 pM.
Under `[2H]C([2H])(NC(=O)c1cc(Cl)c2c(c1C)OC(C)([C@H]1CC[C@@H](CN3CCOCC3)CC1)O2)c1c(SC)cc(C)[nH]c1=O` (single isomer, unassigned) [Compound 57, isomer 1, 7-chloro-2,4-dimethyl-N-((6-methyl-4-(methylthio)-2-oxo-1,2-dihydropyridin-3-yl)methyl-d2)-2-(4-(morpholinomethyl)cyclohexyl)benzo[d][1,3]dioxole-5-carboxamide] stands 460 pM.
On to `[2H]C([2H])(NC(=O)c1cc(Cl)c2c(c1C)OC(C)([C@H]1CC[C@@H](CN3CCOCC3)CC1)O2)c1c(SC)cc(C)[nH]c1=O` (single isomer, unassigned) [Compound 57, isomer 2, 7-chloro-2,4-dimethyl-N-((6-methyl-4-(methylthio)-2-oxo-1,2-dihydropyridin-3-yl)methyl-d2)-2-(4-(morpholinomethyl)cyclohexyl)benzo[d][1,3]dioxole-5-carboxamide], for which the IC50 turned out to be 490 pM.
`CSc1cc(C)[nH]c(=O)c1CNC(=O)c1cc(Cl)c2c(c1C)OC(C)(C1CCC(NC3COC3)CC1)O2` (single isomer, unassigned) [Compound 61, isomer 1, 7-chloro-2,4-dimethyl-N-((6-methyl-4-(methylthio)-2-oxo-1,2-dihydropyridin-3-yl)methyl)-2-(4-(oxetan-3-ylamino)cyclohexyl)benzo[d][1,3]dioxole-5-carboxamide] registered an IC50 of 520 pM.
`CSc1cc(C)[nH]c(=O)c1CNC(=O)c1cc(Cl)c2c(c1C)OC(C)(C1CCC(NC3COC3)CC1)O2` (single isomer, unassigned) [Compound 61, isomer 2, 7-chloro-2,4-dimethyl-N-((6-methyl-4-(methylthio)-2-oxo-1,2-dihydropyridin-3-yl)methyl)-2-(4-(oxetan-3-ylamino)cyclohexyl)benzo[d][1,3]dioxole-5-carboxamide]: the IC50 is 250 pM.
With `CSc1cc(C)[nH]c(=O)c1CNC(=O)c1cc(Cl)c2c(c1C)OC(C)(C1CCN(C(=O)C3CC(F)(F)C3)CC1)O2` (single isomer, unassigned; isomer 1) [Compound 11, isomer 1, 7-chloro-2-(1-(3,3-difluorocyclobutane-1-carbonyl)piperidin-4-yl)-2,4-dimethyl-N-((6-methyl-4-(methylthio)-2-oxo-1,2-dihydropyridin-3-yl)methyl)benzo[d][1,3]dioxole-5-carboxamide] the figure was 730 pM; with `CSc1cc(C)[nH]c(=O)c1CNC(=O)c1cc(Cl)c2c(c1C)OC(C)(C1CCN(C(=O)C3CC(F)(F)C3)CC1)O2` (single isomer, unassigned; isomer 2) [Compound 11, isomer 2, 7-chloro-2-(1-(3,3-difluorocyclobutane-1-carbonyl)piperidin-4-yl)-2,4-dimethyl-N-((6-methyl-4-(methylthio)-2-oxo-1,2-dihydropyridin-3-yl)methyl)benzo[d][1,3]dioxole-5-carboxamide], 880 pM; with `CSc1cc(C)[nH]c(=O)c1CNC(=O)c1cc(Cl)c2c(c1C)OC(C)([C@H]1CC[C@@H](C(=O)N3CC(F)(F)C3)CC1)O2` (single isomer, unassigned; isomer 2) [Compound 47, isomer 2, 7-chloro-2-(4-(3,3-difluoroazetidine-1-carbonyl)cyclohexyl)-2,4-dimethyl-N-(di-deuterated(6-methyl-4-(methylthio)-2-oxo-1,2-dihydropyridin-3-yl)di-deuterated-methyl)benzo[d][1,3]dioxole-5-carboxamide], 920 pM.
For `CSc1cc(C)[nH]c(=O)c1CNC(=O)c1cc(Cl)c2c(c1C)OC(C)(C1CCN(C(=O)c3csc(C)n3)CC1)O2` (stereo not drawn) [Compound 21, 7-chloro-2,4-dimethyl-N-((6-methyl-4-(methylthio)-2-oxo-1,2-dihydropyridin-3-yl)methyl)-2-(1-(2-methylthiazole-4-carbonyl)piperidin-4-yl)benzo[d][1,3]dioxole-5-carboxamide], inhibition was half-maximal at 610 pM (IC50).
Under `CSc1cc(C)[nH]c(=O)c1CNC(=O)c1cc(Cl)c2c(c1C)OC(C)(C1CCN(C3CC3)CC1)O2` (stereo not drawn) [Compound 24, 7-chloro-2-(1-cyclopropylpiperidin-4-yl)-2,4-dimethyl-N-((6-methyl-4-(methylthio)-2-oxo-1,2-dihydropyridin-3-yl)methyl)benzo[d][1,3]dioxole-5-carboxamide] stands 580 pM.
Under `[2H]C([2H])(NC(=O)c1cc(Cl)c2c(c1C)OC(C)(C1CCN(CC3CC(F)(F)C3)CC1)O2)c1c(SC)cc(C)[nH]c1=O` (stereo not drawn) [Compound 28, 7-chloro-2-(1-((3,3-difluorocyclobutyl)methyl)piperidin-4-yl)-2,4-dimethyl-N-((6-methyl-4-(methylthio)-2-oxo-1,2-dihydropyridin-3-yl)methyl-d2)benzo[d][1,3]dioxole-5-carboxamide] stands 490 pM; under `CSc1cc(C)[nH]c(=O)c1CNC(=O)c1cc(Cl)c2c(c1C)OC(C)(C1CCN(CC3(F)CC3)CC1)O2` (stereo not drawn) [Compound 32, 7-chloro-2-(1-((1-fluorocyclopropyl)methyl)piperidin-4-yl)-2,4-dimethyl-N-((6-methyl-4-(methylthio)-2-oxo-1,2-dihydropyridin-3-yl)methyl)benzo[d][1,3]dioxole-5-carboxamide], 580 pM.
Under `COC1CC(N2CCC(C3(C)Oc4c(Cl)cc(C(=O)NCc5c(SC)cc(C)[nH]c5=O)c(C)c4O3)CC2)C1` (stereo not drawn) [Compound 33, 7-chloro-2-(1-(3-methoxycyclobutyl)piperidin-4-yl)-2,4-dimethyl-N-((6-methyl-4-(methylthio)-2-oxo-1,2-dihydropyridin-3-yl)methyl)benzo[d][1,3]dioxole-5-carboxamide] stands 570 pM.
